Among the data in patent publication US20110098300A1, “Compounds Comprising A Cyclobutoxy Group” (UCB PHARMA, S.A., priority 2008, published 2011) are melting point values, retold here.

SMILES strings stand for the structures.

What is called melting point is the temperature, or range, at which the solid turns liquid.

Compound `O=C(c1ccc(O[C@H]2C[C@H](N3CCCCC3)C2)cc1)N1CCOCC1` [Compound 1, 4-{4-[(trans-3-piperidin-1-ylcyclobutyl)oxy]benzoyl}morpholine] had a melting point of 135 to 136 °C.
Under `O=C(c1ccc(O[C@H]2C[C@H](N3CCCCC3)C2)cc1)N1CCC(F)(F)CC1` [Compound 2, 4,4-difluoro-1-{4-[(trans-3-piperidin-1-ylcyclobutyl)oxy]benzoyl}piperidine] stands 145 to 146 °C.
Then `O=C(c1ccc(O[C@H]2C[C@H](N3CCCCC3)C2)cc1)N1CCCCC1` [Compound 3, 1-{trans-3-[4-(piperidin-1-ylcarbonyl)phenoxy]cyclobutyl}piperidine], with 101.1 to 102.2 °C; and `CC(C)N1CCN(C(=O)c2ccc(O[C@H]3C[C@H](N4CCCCC4)C3)cc2)CC1` [Compound 4, 1-isopropyl-4-{4-[(trans-3-piperidin-1-ylcyclobutyl)oxy]benzoyl}piperazine], with 98.5 to 99 °C.
Under `O=C(c1ccc(O[C@H]2C[C@H](N3CCCCC3)C2)cc1)N1CCC(O)CC1` [Compound 5, 1-{4-[(trans-3-piperidin-1-ylcyclobutyl)oxy]benzoyl}piperidin-4-ol] stands 57.4 to 57.8 °C.
In the case of `O=C(c1ccc(O[C@H]2C[C@H](N3CCCCC3)C2)cc1)N1CCS(=O)(=O)CC1` [Compound 8, 4-{4-[(trans-3-piperidin-1-ylcyclobutyl)oxy]benzoyl}thiomorpholine 1,1-dioxide], the melting point lay within 186.5 to 186.9 °C.
In turn, `O=C(c1ccc(O[C@H]2C[C@H](N3CCCCC3)C2)cc1)N1CCC(F)(F)C1` [Compound 9, 1-(trans-3-{4-[(3,3-difluoropyrrolidin-1-yl)carbonyl]phenoxy}cyclobutyl)piperidine] had a melting point of 115.2 to 115.8 °C.
Under `CC(=O)N1CCN(C(=O)c2ccc(O[C@H]3C[C@H](N4CCCCC4)C3)cc2)CC1` [Compound 10, 1-acetyl-4-{4-[(trans-3-piperidin-1-ylcyclobutyl)oxy]benzoyl}piperazine] stands 159.2 to 159.8 °C.
In the case of `O=C(c1ccc(O[C@H]2C[C@H](N3CCCCC3)C2)cc1)N1CC(O)C1` [Compound 11, 1-{4-[(trans-3-piperidin-1-ylcyclobutyl)oxy]benzoyl}azetidin-3-ol], the melting point is 82.2 to 82.4 °C.
Then `O=C(Nc1cnccc1Cl)c1ccc(O[C@H]2C[C@H](N3CCCCC3)C2)cc1` [Compound 12, N-(4-chloropyridin-3-yl)-4-[(trans-3-piperidin-1-ylcyclobutyl)oxy]benzamide], with 151.6 °C; and `O=C(NCC(F)(F)F)c1ccc(O[C@H]2C[C@H](N3CCCCC3)C2)cc1` [Compound 13, 4-[(trans-3-piperidin-1-ylcyclobutyl)oxy]-N-(2,2,2-trifluoroethyl)benzamide], with 152.9 to 153.4 °C.
